Results published in patent publication US10159672B2 (PARION SCIENCES, INC., priority 2011, dated 2018).

Experiments:
[1] = Human plasma protein binding; assay type: in vitro ADME; details: n=6, read-out: Human Plasma Protein Binding, bound to plasma proteins (converted)
ENaC = target: T1, ENaC (Canis lupus familiaris, UniProt A0A8I3MKE6+A0A8I3Q679+Q95165); assay: In vitro sodium channel blocking activity and reversibility (short circuit current, Ussing chambers); assay type: cell-based, canine
T1 construct: using primary cultures of canine bronchial epithelial cells; endogenous in cells; host or cells: primary canine bronchial epithelial cells cultured at air-liquid interface
T1 sequence (A0A8I3Q679 1-649): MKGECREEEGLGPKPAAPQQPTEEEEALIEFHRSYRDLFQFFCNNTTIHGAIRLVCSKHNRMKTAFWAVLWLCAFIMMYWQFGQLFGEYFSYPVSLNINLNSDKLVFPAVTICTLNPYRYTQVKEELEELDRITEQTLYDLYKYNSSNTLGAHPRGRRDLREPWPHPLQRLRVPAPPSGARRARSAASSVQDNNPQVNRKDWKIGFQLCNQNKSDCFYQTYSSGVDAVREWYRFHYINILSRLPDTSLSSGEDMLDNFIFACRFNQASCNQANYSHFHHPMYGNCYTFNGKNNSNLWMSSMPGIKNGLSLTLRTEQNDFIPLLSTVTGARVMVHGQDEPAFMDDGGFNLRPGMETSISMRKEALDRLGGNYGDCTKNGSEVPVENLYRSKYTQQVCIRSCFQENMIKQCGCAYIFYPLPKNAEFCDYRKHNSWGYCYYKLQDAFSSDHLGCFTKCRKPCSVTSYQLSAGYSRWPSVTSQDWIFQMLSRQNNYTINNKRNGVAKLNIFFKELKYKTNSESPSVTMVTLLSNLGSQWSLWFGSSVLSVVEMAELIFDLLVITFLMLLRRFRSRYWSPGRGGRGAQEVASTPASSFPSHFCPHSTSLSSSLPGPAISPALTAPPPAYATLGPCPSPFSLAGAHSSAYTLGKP
T1 sequence (Q95165 1-641): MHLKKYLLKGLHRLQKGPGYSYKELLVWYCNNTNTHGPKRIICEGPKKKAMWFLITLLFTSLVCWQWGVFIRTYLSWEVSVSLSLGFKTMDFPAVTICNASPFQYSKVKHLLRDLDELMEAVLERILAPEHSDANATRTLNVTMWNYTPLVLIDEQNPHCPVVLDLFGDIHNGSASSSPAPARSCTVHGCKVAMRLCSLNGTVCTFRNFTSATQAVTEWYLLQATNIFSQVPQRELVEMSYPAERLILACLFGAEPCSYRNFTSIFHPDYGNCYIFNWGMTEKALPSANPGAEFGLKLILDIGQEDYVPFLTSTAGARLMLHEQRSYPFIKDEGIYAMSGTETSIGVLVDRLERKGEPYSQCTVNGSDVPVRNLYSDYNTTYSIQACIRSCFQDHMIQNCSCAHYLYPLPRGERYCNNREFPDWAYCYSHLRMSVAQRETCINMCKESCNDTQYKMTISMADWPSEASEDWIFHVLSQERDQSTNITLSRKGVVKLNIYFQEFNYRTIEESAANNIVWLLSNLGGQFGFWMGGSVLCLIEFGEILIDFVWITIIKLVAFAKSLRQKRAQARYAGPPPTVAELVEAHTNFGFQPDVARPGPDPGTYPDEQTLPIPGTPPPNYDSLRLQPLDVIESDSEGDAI
T1 sequence (A0A8I3MKE6 1-646): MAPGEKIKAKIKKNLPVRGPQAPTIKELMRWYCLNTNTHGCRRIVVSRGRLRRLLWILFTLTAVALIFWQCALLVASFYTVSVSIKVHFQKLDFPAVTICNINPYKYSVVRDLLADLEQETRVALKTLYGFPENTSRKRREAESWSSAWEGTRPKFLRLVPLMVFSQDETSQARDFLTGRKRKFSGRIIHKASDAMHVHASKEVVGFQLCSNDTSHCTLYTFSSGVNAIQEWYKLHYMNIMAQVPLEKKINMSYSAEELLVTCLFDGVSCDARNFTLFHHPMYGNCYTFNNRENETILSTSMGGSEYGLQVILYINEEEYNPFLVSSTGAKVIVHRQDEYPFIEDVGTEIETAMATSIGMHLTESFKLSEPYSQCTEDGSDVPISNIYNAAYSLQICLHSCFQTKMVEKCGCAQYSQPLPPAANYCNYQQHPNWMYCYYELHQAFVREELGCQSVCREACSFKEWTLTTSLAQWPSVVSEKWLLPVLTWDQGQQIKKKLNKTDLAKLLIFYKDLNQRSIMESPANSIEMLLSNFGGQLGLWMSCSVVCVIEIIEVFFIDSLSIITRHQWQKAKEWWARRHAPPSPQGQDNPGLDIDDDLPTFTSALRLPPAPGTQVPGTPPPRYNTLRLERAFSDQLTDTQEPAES
Method: One assay used to assess mechanism of action and/or potency of the compounds of the present invention involves the determination of lumenal drug inhibition of airway epithelial sodium currents measured under short circuit current (ISC) using airway epithelial monolayers mounted in Ussing chambers. Cells obtained from freshly excised human, dog, sheep or rodent airways are seeded onto porous 0.4 micron Snapwell™ Inserts (CoStar), cultured at air-liquid interface (ALI) conditions in hormonally defined media, and assayed for sodium transport activity (ISC) while bathed in Krebs Bicarbonate Ringer (KBR) in Using chambers. All test drug additions are to the lumenal bath with half-log dose addition protocols (from 1×10^−11 M to 3×10^−5 M), and the cumulative change in ISC (inhibition) recorded. All drugs are prepared in dimethyl sulfoxide as stock solutions at a concentration of 1×10^−2 M and stored at −20° C. […] After the maximal concentration ([…]) is administered, the lumenal bath is exchanged three times with fresh drug-free KBR solution, and the resultant ISC measured after each wash for approximately 5 minutes in duration. Reversibility is defined as the percent return to the baseline value for sodium current after the third wash. All data from the voltage clamps are collected via a computer interface and analyzed off-line.
Dose-effect relationships for all compounds are considered and analyzed by the Prism 3.0 program. […] The potency of the sodium channel blocking activity of representative compounds in freshly excised cell from canine airways is shown in Table 2.

In the case of `CN(C)C(=O)[C@H](CCCCNC(=N)N)NC(=O)[C@H](CCc1ccc(CCCCNC(=N)NC(=O)c2nc(Cl)c(N)nc2N)cc1)N(C)C` [Compound I, 3,5-diamino-6-chloro-N-(N-(4-(4-((S)-3-(dimethylamino)-4-((S)-1-(dimethylamino)-6-guanidino-1-oxohexan-2-ylamino)-4-oxobutyl)phenyl)butyl)carbamimidoyl)pyrazine-2-carboxamide], the fraction unbound [1] is reported as 0.2, the “Potency compared to amiloride” value (ENaC; Ussing chamber, primary cultures of canine bronchial epithelial cells) is reported as over 100 fold and the IC50 (ENaC; canine bronchial epithelial cells, n=5, read-out: Potency (IC50) on Canine Bronchial Epithelial Cells) is reported as 5.3 nM. For the same compound, the Emax (ENaC; with 3 washes, n=3, read-out: Reversal of Maximal Effect on Canine Bronchial Epithelial Cells (effect lost)) was 6.8 ± 5.1%.
